According to publication PMC4240912, “Multifaceted interplay between lipophilicity, protein interaction and luminescence parameters of non-intercalative ruthenium(II) polypyridyl complexes controlling cellular imaging and cytotoxic properties” (Journal of Biological Inorganic Chemistry, 2014):

Biological target: human serum albumin (HSA) (Homo sapiens, UniProt P02768)
Test: Luminescence quantum yield and lifetime in the presence of HSA
Method: The protein stock solution was prepared by dissolving human serum albumin (HSA) in water and its concentration was determined spectrophotometrically from the molar absorptivity of 4.4 × 10^4 cm^−1 M^−1 at 280 nm. The emission spectra were recorded between 305 and 500 nm upon excitation at 295 nm resulting in selective excitation of tryptophan residue of HSA. The average of three scans was subjected to smoothing and the fluorescence intensities were corrected due to dilution effects. Protein-binding experiments were conducted by measuring fluorescence spectra of protein solution (1 μM) in the presence of different amounts of ruthenium compounds (0–10 μM) in PBS buffer pH 7.4 at 37 °C. Ru–protein solutions were allowed to incubate for 5 min before the emission spectra were recorded. The quantum yield and lifetime of luminescence for ruthenium complexes in the present of HSA (1 μM) was measured using the same procedure as described for ruthenium complexes alone (the HSA/Ru-complex ratio is given in the figure caption).

human serum albumin (HSA), sequence (P02768 25-609): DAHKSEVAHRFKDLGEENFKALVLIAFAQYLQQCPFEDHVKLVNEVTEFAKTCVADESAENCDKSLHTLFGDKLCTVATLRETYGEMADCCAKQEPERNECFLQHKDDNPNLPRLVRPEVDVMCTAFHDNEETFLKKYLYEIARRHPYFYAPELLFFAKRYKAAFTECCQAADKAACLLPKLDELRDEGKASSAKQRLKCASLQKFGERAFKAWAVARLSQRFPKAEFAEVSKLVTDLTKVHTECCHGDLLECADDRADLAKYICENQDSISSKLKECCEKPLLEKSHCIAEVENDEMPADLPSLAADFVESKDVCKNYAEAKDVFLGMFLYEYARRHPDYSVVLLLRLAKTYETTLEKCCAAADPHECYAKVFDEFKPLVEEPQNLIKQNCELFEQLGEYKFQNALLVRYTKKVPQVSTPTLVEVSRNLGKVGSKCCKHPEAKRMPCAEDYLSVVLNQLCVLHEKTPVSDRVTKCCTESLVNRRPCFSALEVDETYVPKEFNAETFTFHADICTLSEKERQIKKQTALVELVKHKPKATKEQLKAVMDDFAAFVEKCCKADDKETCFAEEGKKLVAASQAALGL

“[Ru(dip)2(1,3-dicyclohexyl-1-[4-carbonyl-(4′-methyl-2,2′-bipyridyl)]-urea)]Cl2 [[Ru(dip)2(CH3bpy-DCU)]^2+]” was tested, and the “φ, quantum yield of luminescence” value (PBS pH 7.4, [HSA]/[Ru] = 1) was 0.0472 and the “φ, quantum yield of luminescence” value (PBS pH 7.4, in the absence of HSA) was 0.0076.
